According to ChEMBL document CHEMBL1134506, “Design and synthesis of 2-methyl-2-[4-(2-[5-methyl-2-aryloxazol-4-yl]ethoxy)phenoxy]propionic acids: a new class of dual PPARalpha/gamma agonists” (J Med Chem, 2001):

Tests used:
[1] = target: T1, Peroxisome proliferator-activated receptor alpha (Homo sapiens) (UniProt Q07869); experiment: (§1) Binding affinity at human PPAR alpha
T1 sequence (whole entry): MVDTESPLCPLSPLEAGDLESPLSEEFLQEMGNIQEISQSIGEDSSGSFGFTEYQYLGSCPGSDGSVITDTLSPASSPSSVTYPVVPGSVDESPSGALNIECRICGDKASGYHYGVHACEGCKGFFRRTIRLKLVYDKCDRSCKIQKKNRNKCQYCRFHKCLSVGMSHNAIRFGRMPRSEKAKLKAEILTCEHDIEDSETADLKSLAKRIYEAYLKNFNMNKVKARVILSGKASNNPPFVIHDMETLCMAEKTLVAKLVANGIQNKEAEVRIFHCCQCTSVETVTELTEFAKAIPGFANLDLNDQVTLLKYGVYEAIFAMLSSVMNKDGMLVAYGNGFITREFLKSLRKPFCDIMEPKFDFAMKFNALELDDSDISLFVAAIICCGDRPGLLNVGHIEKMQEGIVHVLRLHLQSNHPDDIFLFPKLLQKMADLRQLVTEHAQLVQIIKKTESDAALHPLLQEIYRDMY

[2] = target: T2, Peroxisome proliferator-activated receptor alpha (Homo sapiens, UniProt Q07869); experiment: Binding affinity towards human […] proliferator activated receptor alpha (hPPARalpha)
T2 sequence (Q07869 whole entry): T1 sequence (whole entry)

[3] = target: T3, Peroxisome proliferator-activated receptor gamma (Homo sapiens, UniProt P37231); experiment: Binding affinity at human […] proliferator activated receptor gamma (hPPARgamma); No binding
T3 sequence (P37231 whole entry): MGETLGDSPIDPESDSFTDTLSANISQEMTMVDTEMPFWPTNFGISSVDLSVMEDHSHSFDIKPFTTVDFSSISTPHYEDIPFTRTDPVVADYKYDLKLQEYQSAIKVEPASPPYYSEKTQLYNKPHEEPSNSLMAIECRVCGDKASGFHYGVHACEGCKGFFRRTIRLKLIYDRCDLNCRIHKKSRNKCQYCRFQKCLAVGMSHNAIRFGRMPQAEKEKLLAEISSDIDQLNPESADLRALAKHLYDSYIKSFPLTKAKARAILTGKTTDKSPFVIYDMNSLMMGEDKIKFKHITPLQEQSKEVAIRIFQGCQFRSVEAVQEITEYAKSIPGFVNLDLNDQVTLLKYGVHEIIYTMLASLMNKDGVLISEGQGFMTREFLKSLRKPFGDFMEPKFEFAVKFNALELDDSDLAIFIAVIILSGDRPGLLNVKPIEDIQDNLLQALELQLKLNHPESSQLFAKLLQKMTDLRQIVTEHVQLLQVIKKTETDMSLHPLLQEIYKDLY

[4] = target: T4, Peroxisome proliferator-activated receptor gamma (Homo sapiens) (UniProt P37231); experiment: Binding affinity at human PPAR gamma
T4 sequence (whole entry): T3 sequence (P37231 whole entry)

[5] = target: T2, Peroxisome proliferator-activated receptor alpha; experiment: Binding affinity towards human […] proliferator activated receptor alpha (hPPARalpha); No binding
[6] = target: T3, Peroxisome proliferator-activated receptor gamma
Description: Binding affinity at human peroxidase proliferator activated receptor gamma (hPPARgamma)

[7] = target: T2, Peroxisome proliferator-activated receptor alpha; experiment: as §1
[8] = target: T3, Peroxisome proliferator-activated receptor gamma; remark: listed apart in the source

| Compound | Efficacy [1] [%] | IC50 [2] [µM] | IC50 [3] | Efficacy [4] [%] | IC50 [5] | IC50 [6] [µM] | EC50 [7] [µM] | EC50 [8] [µM] |
| --- | --- | --- | --- | --- | --- | --- | --- | --- |
| CC(C)(Oc1ccc(C(=O)c2ccc(Cl)cc2)cc1)C(=O)O [FENOFIBRIC ACID] | < 20 | 68 | Not Active | < 20 |  |  |  |  |
| Cc1c(C)c2c(c(C)c1O)CCC(C)(COc1ccc(CC3SC(=O)NC3=O)cc1)O2 (stereo unspecified) [TROGLITAZONE] | < 20 |  |  |  | Not Active |  |  |  |
| Cc1oc(-c2ccccc2)nc1CCOc1ccc(OC(C)(C)C(=O)O)cc1 |  | 1.44 |  |  |  | 3.02 | 0.717 | 2.06 |
| Cc1oc(-c2ccccc2)nc1CCOc1ccc(CC2SC(=O)NC2=O)cc1 (stereo unspecified) |  | 4.09 |  |  |  | 0.014 | 0.771 | 0.008 |
| Cc1oc(-c2ccc(-c3ccccc3)cc2)nc1CCOc1ccc(OC(C)(C)C(=O)O)cc1 |  | 0.174 |  |  |  | 0.548 | 0.149 | 0.882 |
| Cc1oc(-c2ccccc2)nc1CCOc1ccc(OC(C)C(=O)O)cc1 (stereo unspecified) |  | 2.03 |  |  |  | 3.12 | 0.625 | 2.75 |
| CN(CCOc1ccc(CC2SC(=O)NC2=O)cc1)c1ccccn1 (stereo unspecified) | 20 |  |  |  |  |  |  |  |
| Cc1oc(-c2ccc(Br)cc2)nc1CCOc1ccc(OC(C)(C)C(=O)O)cc1 |  | 0.242 |  |  |  | 4.56 | 0.0619 | 1.72 |
| Cc1oc(-c2ccccc2)nc1CCOc1ccc(OCC(=O)O)cc1 |  | 10.6 |  | 20 |  | 10.6 | 2.75 |  |
